Source: patent publication US20240139280A1, “USE OF HIF-1-ALPHA INHIBITORS IN CANCER IMMUNOTHERAPY” (ONCOC4, INC., priority 2021, published 2024)

Columns and labels:
[1] = test system: PD-L1 expression in E0771 cells; format: cell-based, murine
[2] = test system: core HRE motif EGFP reporter in 4T1-HRE-EGFP cells; format: cell-based, murine
intestinal tissues [3] = conditions: in vivo
Description: (§1) Experimental design for GI-irAE induction by Ipilimumab, with or without additional therapies. 10-day old CTLA4h/h mice received 0.1 mg of Ipilimumab on days 10, 13, 16, and 19 after birth to induce the GI-irAE phenotype, measured by FITC-dextran assay on day 32. On day 33, the mice were sacrificed for histological and immunofluorescent analysis of intestinal tissues, and flow cytometry, etc. […] Aggregate data from 4 experiments are presented. […] Starting on day 10 after birth, the mice began receiving treatment with vehicle (n=33), echinomycin (n=27), Ipilimumab (n=33), Ipilimumab+echinomycin (n=26), Ipilimumab+RMP1-14 (n=27), Ipilimumab+echinomycin+RMP1-14 (n=28), or Ipilimumab+echinomycin+XMG1.2 (n=15). Echinomycin (10 μg/kg), Ipilimumab (0.1 mg/mouse/injection), RMP1-14 (0.2 mg/mouse/injection), and XMG1.2 (0.2 mg/mouse/injection). Vehicle or echinomycin (10 μg/kg) were given once every three days for 8 doses, and mAbs (0.1 mg/mo. for Ipilimumab; 0.2 mg/mo. for RMP1-14 and XMG1.2) once every three days for 4 doses. Data collection was performed as described in (FIG. 8A). […] Serum FITC-dextran intensity shown as mean±SEM for individual mice pooled from 3 independent experiments. […] Statistics were determined by unpaired t tests (two-tailed) for group means. […] Representative H&E images from intestines of Ipilimumab-treated mice additionally treated with echinomycin (panel i), RMP1-14 (panels ii-iv), echinomycin+RMP1-14 (panels v-vi), or echinomycin+XMG1.2 (panels vii-viii). […] Representative immunofluorescence images showing relative expression of PD-L1 in jejunum of mice from different treatment groups.
(§2) Therefore, we used intestinal permeability to orally administrated FITC-dextran and histology as the readout for irAE (FIG. 8A).

intestinal tissues [4] = assay: Ipilimumab-induced GI-irAE in human CTLA4 knockin mice (FITC-dextran, histology, PD-L1); conditions: Ipilimumab 0.1 mg/mouse/injection; echinomycin 10 μg/kg added to Ipilimumab
Description: as §1, §2

`[Cl-].[Cl-].[Co+2]` [CoCl2] was tested, and the PD-L1 expression [1] was “further upregulated PD-L1” and the “EGFP reporter fluorescence activity” value [2] was “marked increase in EGFP reporter fluorescence activity”.
With “Ipilimumab: Recombinant anti-CTLA-4 antibody Ipilimumab provided by Lakepharma Inc.” the “intestinal inflammation / pathology (histological analysis)” value (intestinal tissues [3]) was “induced intestinal inflammation” and the “PD-L1 expression in the intestines” value (intestinal tissues [4]) was “elevated PD-L1 expression”.
